Experimental data as given in publication PMC9918898, “Bioactive Clerodane Diterpenoids from the Leaves of Casearia coriacea Vent” (Molecules, 2023).
Converted amounts (≈) assume the structure as drawn. “And” between values parts separate entries of the source, which are not always exact repeats. Equal values may be shown once. Read-outs that look alike come from different tables or passages of the source.

Tests used:
P. falciparum 3D7 = test: Antiplasmodial activity, lactate dehydrogenase assay; type: cell-based; conditions: Plasmodium falciparum
Experimental: (§1) A continuous in vitro culture of asexual erythrocyte stages of P. falciparum, chloroquine-sensitive strain 3D7 (ATCC), was maintained following the procedure of Trager and Jensen. Antiplasmodial activity tests were conducted as previously described by the determination of lactate deshydrogenase activity. IC50 was calculated from graphs (GraphPad Prism). T. brucei strain 427 (Molteno Institute in Cambridge, UK) and L. mexicana mexicana (MHOM/BZ/84/BEL46 from Pr. P.A.M Michels of De Duve Institue, UCLouvain) were maintained following the procedure previously described by the team of Pr. Quetin-Leclercq. Antileshmanial and antitrypanosomal assays were conducted as previously described, using the AlamarBlue assay.

[1] = tested on: Leishmania mexicana mexicana; test: Antileishmanial assay (AlamarBlue); type: cell-based
Experimental: as §1

[2] = tested on: Trypanosoma brucei brucei; test: Antitrypanosomal assay (AlamarBlue); type: cell-based
Experimental: as §1

Hemolysis = type: cell-based
A549 cells = test: In vitro cytotoxic activity (Prestoblue); type: cell-based, human; conditions: towards Plasmodium
Experimental: (§2) Assays were performed on different human cancer cell lines (MDA-MB-231, PANC-1, and A549 cells obtained from ATCC) to evaluate the cytotoxicity potential of the compounds 1–3, and the crude extract. Cells were grown in high-glucose Dulbecco’s modified Eagle Medium (DMEM, Gibco) supplemented with glutamine (2 mM), penicillin (50 IU/mL), streptomycin (0.5 mg/mL), sodium pyruvate (0.5 mM), and 10% FBS (Foetal Bovine Serum) at 37 °C with 5% CO2 in the air. Compounds were tested in 96-well microplates using the Prestoblue® colorimetric assay for cell viability based on the reduction of resazurin in resorufin as previously described. Briefly, 2500 cells were seeded per well in 100 µL of medium supplemented with adequate concentrations of the tested drugs. After 72 h of drug exposure, 75 µL of diluted solution of Prestoblue reagent were added to each well, and the plate was incubated in the dark for 2 h at 37 °C. Any changes in cell viability were detected using fluorescence spectroscopy. The fluorescence of resorufin was measured using a SpectraMax i3 plate reader (Molecular Devices™) with excitation and emission wavelengths set at 560 nm and 590 nm, respectively. The cell viability was expressed as a percentage relative to control-vehicle-treated cells (DMSO 0.1%). IC50 values were calculated from graphs based on a regression line in which the resorufin fluorescence values were plotted against the logarithm of drug concentration.

MDA-MB-231 cells = test: In vitro cytotoxic activity (Prestoblue); type: cell-based, human; conditions: towards Plasmodium
Experimental: as §2

PANC-1 cells = test: In vitro cytotoxic activity (Prestoblue); type: cell-based, human; conditions: towards Plasmodium
Experimental: as §2

[3] = Zebrafish embryos acute toxicity test; type: in vivo, Danio rerio; conditions: zebrafish (Danio rerio), in vivo, other: immersion of embryos in treatment solution in wells; zebrafish embryos
Experimental: (§3) Adult zebrafish (Danio rerio) were maintained, fulfilling the criteria of the Ethical Committee for the Use of Laboratory Animals at the University of Liège. They were maintained at 28 °C over a period of 14 h day/10 h night, and fertilized eggs were collected, washed with sterile water, and placed in Petri dishes. The embryos were collected, and their chorions were not removed at 24 hpf. Compound 1 was dissolved in DMSO (the maximum final concentration of DMSO was 0.4%). Twenty embryos were used per condition in a 6-well plate. Each well contained 5 mL of the treatment dose (compound 1 or DMSO 0.4%), which was replaced daily for three days. The embryos were observed under a binocular microscope daily until 72 hpf (hours post fertilization).

zebrafish embryos = test: Zebrafish embryos acute toxicity test; type: in vivo, Danio rerio
Experimental: as §3

zebrafish = tested on: zebrafish; design: method as in PMID 21738604; conditions: cited from earlier work
[4] = 3D7, n = 3, mean ± SD, read-out: P. falciparum 3D7 IC50 (converted)
[5] = n = 3, mean ± SD, read-out: Leishmania IC50 (converted)
[6] = n = 3, mean ± SD, read-out: Trypanosoma IC50 (converted)

For `C=CC(=C)CC[C@]1(C)[C@H]2C[C@H](OC(=O)C(C)CC)C=C3[C@H](OC(C)=O)O[C@H](OC(C)=O)[C@@]32[C@H](O)C[C@@H]1C` (relative stereo) [Compound 3, rel-(2S,5R,6R,8S,9S,10R,18S,19R)-18,19-epoxy-18,19-diacetoxy-6-hydroxy-2-(2-methylbutanoyloxy)cleroda-3,13(16),14-triene], the IC50 (P. falciparum 3D7; [4]) was 0.51 µg/mL and 980 nM, the IC50 [1, 5] was 26 µg/mL and 50.3 µM and the IC50 [2, 6] was 3.03 µg/mL and 5.85 µM. The hemolysis (Hemolysis) was less than 1%.

`C[C@@H]1CC[C@H]2[C@@H](C)C(=O)O[C@@H]3O[C@@]4(C)CC[C@@H]1[C@]32OO4` [Artemisinin, reference compound] showed an IC50 (P. falciparum 3D7; [4]) of 0.004 ± 0.001 µg/mL (≈ 0.0142 µM).

In the case of `C=CC(=C)CC[C@]1(C)[C@H]2C[C@H](OC(=O)CCC)C=C3[C@H](OC(C)=O)O[C@H](OC(C)=O)[C@@]32[C@H](O)C[C@@H]1C` [Compound 1, caseamembrin T], the IC50 (P. falciparum 3D7; 3D7, read-out: P. falciparum 3D7 IC50) is reported as 0.25 µg/mL and 490 nM, the IC50 [1, 5] is reported as 26.1 µg/mL and 51.7 µM and the IC50 ([2]; read-out: Trypanosoma IC50) is reported as 3.08 µg/mL and 6.11 µM. The hemolysis (Hemolysis) was less than 1%, the “selectivity index against A549” value (A549 cells) was 6.5 and the “selectivity index against MDA-MB-231” value (MDA-MB-231 cells) was 5.4. For the same compound, the “selectivity index against PANC-1” value (PANC-1 cells) was 3, the LC50 at 3 days [3] was 1 to 5 µg/mL (≈ 1.98 to 9.91 µM) and the embryos alive (zebrafish embryos; 5 µg/mL, 48 hpf) was 20%. The state of embryos (zebrafish embryos; 5 µg/mL, 72 hpf) was “lifeless”, the lethality (zebrafish embryos; concentrations higher than 5 µg/mL) was “lethal for all embryos” and the “mortality and morphological change” value (zebrafish embryos; up to a concentration of 1 µg/mL) was “neither mortality nor morphological change were observed”.

With `C=CC(=C)CC[C@]1(C)[C@H]2C[C@H](OC(=O)C(C)C)C=C3[C@H](OC(C)=O)O[C@H](OC(C)=O)[C@@]32[C@H](O)C[C@@H]1C` [Compound 2, corymbulosine I] the IC50 (P. falciparum 3D7; [4]) was 0.4 µg/mL and 790 nM, the IC50 [1, 5] was 10.3 µg/mL and 20.4 µM and the IC50 [2, 6] was 3 µg/mL and 5.95 µM. The hemolysis (Hemolysis; red blood cells, read-out: Hemolysis) was less than 1%.

With `N=C(N)c1ccc(OCCCCCOc2ccc(C(=N)N)cc2)cc1` [Pentamidine, reference compound] the IC50 ([1]; read-out: Leishmania IC50) was 0.02 µg/mL and 60 nM.

In the case of `Cc1ccc(C(=O)Nc2ccc(S(=O)(=O)O)c3cc(S(=O)(=O)O)cc(S(=O)(=O)O)c23)cc1NC(=O)c1cccc(NC(=O)Nc2cccc(C(=O)Nc3cc(C(=O)Nc4ccc(S(=O)(=O)O)c5cc(S(=O)(=O)O)cc(S(=O)(=O)O)c45)ccc3C)c2)c1` [Suramine, reference compound], the IC50 [2, 6] is reported as 0.05 µg/mL and 40 nM.

For `C[C@H]1O[C@@H](O[C@H]2[C@@H](O)C[C@H](O[C@H]3[C@@H](O)C[C@H](O[C@H]4CC[C@@]5(C)[C@H](CC[C@@H]6[C@@H]5C[C@@H](O)[C@]5(C)[C@@H](C7=CC(=O)OC7)CC[C@]65O)C4)O[C@@H]3C)O[C@@H]2C)C[C@H](O)[C@@H]1O` [digoxin], the “lethal dose 50 (LC50)” value (zebrafish) is given as 0.5 ± 0.006 µg/mL.

For `CN1CCC[C@H]1c1cccnc1` [nicotine], the “lethal dose 50 (LC50)” value (zebrafish) is listed as 35.1 ± 0.5 µg/mL.

In the case of `CC(=O)Nc1ccc(O)cc1` [paracetamol], the “lethal dose 50 (LC50)” value (zebrafish) is listed as 535.8 ± 17.1 µg/mL.
